Test results from patent publication US20250195673A1 (priority 2020, published 2025).

Molecular target: human NTSR1 (Homo sapiens, UniProt P30989)
Sequence (P30989 whole entry): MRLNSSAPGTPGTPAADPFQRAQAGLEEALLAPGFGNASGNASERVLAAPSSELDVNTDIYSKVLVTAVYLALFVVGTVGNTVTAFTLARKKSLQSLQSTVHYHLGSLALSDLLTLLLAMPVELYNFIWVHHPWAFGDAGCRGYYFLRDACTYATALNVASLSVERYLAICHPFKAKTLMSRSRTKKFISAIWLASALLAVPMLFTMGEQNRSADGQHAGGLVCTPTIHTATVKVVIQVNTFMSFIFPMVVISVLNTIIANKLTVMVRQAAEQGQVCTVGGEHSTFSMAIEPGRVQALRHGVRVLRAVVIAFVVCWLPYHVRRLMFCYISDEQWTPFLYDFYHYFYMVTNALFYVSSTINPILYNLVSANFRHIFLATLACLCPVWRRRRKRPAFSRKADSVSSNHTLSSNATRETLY

For murine transferrin [mTf], the IP1 accumulation was “not”.
